# Values of other authors as cited in patent US20230076766A1, “METHOD FOR TREATMENT OF ROSACEA IN PATIENTS AGED 35-64 YEARS” (Sol-Gel Technologies Ltd., priority 2021, published 2023).
# Test system: rosacea lesions
# Conditions: BPO as the sole active agent
structure (smiles),measurement,value
"O=C(OOC(=O)c1ccccc1)c1ccccc1 [BPO, Benzoyl peroxide]",response of rosacea lesions,unresponsive
